Reference: patent US12076464B2, “Drug eluting shape memory foam” (The Texas A&M University System, priority 2019, dated 2024)

Tests used:
Assay type in all cases: physicochemical
[1] = Solubility in DMSO and water
[2] = Drug uptake (loading) onto or into SMP foam from drug/PVA solutions
Protocol: An embodiment includes a method for creating a drug-eluting SMP foam. The method includes incubating the foam in a 0.017 mg/mL acriflavine solution (e.g., 1 mg/mL in acriflavine solution dimethyl sulfoxide (DMSO)) that is mixed with varying PVA solutions of 0%, 1%, 2%, 3%, 10% (wt./vol) overnight on a rotator at room temperature (n=3). Different PVA concentrations may be used to increase drug viscosity and drug uptake onto or into the foam. In other embodiments PVA is held constant and acriflavine concentrations are varied (which changes the PVA viscosity). Foams may then be removed from the respective drug/PVA solutions and dried in a vacuum chamber for 5 days. The foams may then be incubated in 0.4 mL phosphate-buffered saline (PBS) at 37° C. Supernatants may be removed at various time points and measured for fluorescence at 416/514 nm (Ex/Em). In an embodiment acriflavine is used as a cargo in the free drug form (which helps illustrate the release profile for drug solutions with different PVA concentrations). […] This may be due, at least in part, to the increased viscosity of the drug when combined with PVA, which enables the drug to be trapped within or on the pores present in the foam. […]

[3] = In vitro release of acriflavine from SMP foams into PBS at 37° C., fluorescence of supernatants
Protocol: An embodiment includes a method for creating a drug-eluting SMP foam. The method includes incubating the foam in a 0.017 mg/mL acriflavine solution (e.g., 1 mg/mL in acriflavine solution dimethyl sulfoxide (DMSO)) that is mixed with varying PVA solutions of 0%, 1%, 2%, 3%, 10% (wt./vol) overnight on a rotator at room temperature (n=3). Different PVA concentrations may be used to increase drug viscosity and drug uptake onto or into the foam. In other embodiments PVA is held constant and acriflavine concentrations are varied (which changes the PVA viscosity). Foams may then be removed from the respective drug/PVA solutions and dried in a vacuum chamber for 5 days. The foams may then be incubated in 0.4 mL phosphate-buffered saline (PBS) at 37° C. Supernatants may be removed at various time points and measured for fluorescence at 416/514 nm (Ex/Em). Regarding in vitro release of acriflavine from HDI-based SMP foams, see FIG. 1. […] This may be because of the increased loading of acriflavine that is due to PVA (and PVA's affinity for the foam). […] In vitro release of acriflavine from non-reticulated TMHDI 60 foam is addressed in FIG. 3.

Molecule	solubility [1]	drug uptake onto or into the foam ([2]; drug solution without PVA (0% PVA), compared to solutions with increasing PVA concentration)	drug uptake onto or into the foam ([2]; increasing PVA concentrations, FIGS. 1, 2, 3)	acriflavine release from SMP foams (non-cumulative release curve) ([3]; HDI-based SMP foams, FIG. 1, increasing PVA concentration)	release profile ([3]; drug solution with 0% PVA)	acriflavine release from SMP foams (non-cumulative release curve) ([3]; non-reticulated TMHDI 60 (TH60) SMP foams, FIG. 3, increasing PVA concentration)	acriflavine release from SMP foams (non-cumulative release curve) ([3]; reticulated HH80 SMP foams, FIG. 2, increasing PVA concentration)	release profile ([3]; solutions with higher PVA concentrations)
Acriflavine	soluble in both DMSO and water	less drug uptake	increased drug uptake	increases (or at least differs) with increasing PVA concentration	delayed burst release	increased (or at least differs) with increasing PVA concentration	increased (or at least differs) with increasing PVA concentration	immediate release
COc1cccc2c1C(=O)c1c(O)c3c(c(O)c1C2=O)C[C@@](O)(C(=O)CO)C[C@@H]3O[C@H]1C[C@H](N)[C@H](O)[C@H](C)O1 [Doxorubicin]	soluble in both DMSO and water							
